Laboratory results published in PubChem BioAssay (NCI).
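Tested at 5 concentrations; 48 h exposure; 96-well plates; endpoints linearly interpolated, else capped at highest concentration. GI50: concentration for 50% inhibition of growth. The concentration for full growth arrest is given as TGI.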

What was measured:
Experiment in all cases: NCI-60 cell line screen, 48 h
NCI-H23 lung = test system: NCI-H23 lung
HS 578T breast = test system: HS 578T breast
MDA-MB-231 breast = test system: MDA-MB-231 breast
UACC-62 melanoma = test system: UACC-62 melanoma
UACC-257 melanoma = test system: UACC-257 melanoma
SK-MEL-5 melanoma = test system: SK-MEL-5 melanoma
MOLT-4 leukemia = test system: MOLT-4 leukemia
OVCAR-8 ovarian = test system: OVCAR-8 ovarian
RPMI-8226 leukemia = test system: RPMI-8226 leukemia
CAKI-1 renal = test system: CAKI-1 renal
HOP-62 NSCLC = test system: HOP-62 NSCLC
A498 renal = test system: A498 renal
LOX IMVI melanoma = test system: LOX IMVI melanoma
TK-10 renal = test system: TK-10 renal
HOP-92 NSCLC = test system: HOP-92 NSCLC
MALME-3M melanoma = test system: MALME-3M melanoma
RXF 393 renal = test system: RXF 393 renal
SR leukemia = test system: SR leukemia
SN12C renal = test system: SN12C renal
IGROV1 ovarian = test system: IGROV1 ovarian
NCI-H522 lung = test system: NCI-H522 lung
SW-620 colon = test system: SW-620 colon
OVCAR-5 ovarian = test system: OVCAR-5 ovarian
EKVX NSCLC = test system: EKVX NSCLC
SF-268 CNS = test system: SF-268 CNS
ACHN renal = test system: ACHN renal
OVCAR-4 ovarian = test system: OVCAR-4 ovarian
MCF7 breast = test system: MCF7 breast
KM12 colon = test system: KM12 colon

## COc1ccc(-c2cc(-c3cc(OC)c(OC)c(OC)c3)[nH]c(=O)c2C#N)cc1
NCI-H23 lung
  GI50: 18.9 µM
  TGI: 62.1 µM
HS 578T breast
  GI50: 5.67 µM
  TGI: 56.8 µM
MDA-MB-231 breast
  GI50: 3.76 µM
  TGI: 18.4 µM
UACC-62 melanoma
  GI50: 27.2 µM
  TGI: > 100 µM
UACC-257 melanoma
  GI50: 76.6 µM
  TGI: > 100 µM
SK-MEL-5 melanoma
  GI50: 17.1 µM
  TGI: 64.7 µM
MOLT-4 leukemia
  GI50: > 100 µM
  TGI: > 100 µM
OVCAR-8 ovarian
  GI50: 4.3 µM
  TGI: 22.4 µM
RPMI-8226 leukemia
  GI50: > 100 µM
  TGI: > 100 µM
CAKI-1 renal
  GI50: 6.96 µM
  TGI: 31.4 µM
HOP-62 NSCLC
  GI50: 7.08 µM
  TGI: 24.1 µM
A498 renal
  GI50: 3.81 µM
  TGI: 23.4 µM
LOX IMVI melanoma
  GI50: 14 µM
  TGI: 47.4 µM
TK-10 renal
  GI50: 19.8 µM
  TGI: > 100 µM
HOP-92 NSCLC
  GI50: 1.97 µM
  TGI: 8.17 µM
MALME-3M melanoma
  GI50: 19.3 µM
  TGI: 97.3 µM
RXF 393 renal
  GI50: 2.35 µM
  TGI: 12.1 µM
SR leukemia
  GI50: > 100 µM
  TGI: > 100 µM
SN12C renal
  GI50: 3.8 µM
  TGI: 61.6 µM
IGROV1 ovarian
  GI50: 15.1 µM
  TGI: 76.3 µM
NCI-H522 lung
  GI50: 20.3 µM
  TGI: 64.4 µM
SW-620 colon
  GI50: 71.8 µM
  TGI: > 100 µM
OVCAR-5 ovarian
  GI50: > 100 µM
  TGI: > 100 µM
EKVX NSCLC
  GI50: 21.3 µM
  TGI: > 100 µM
SF-268 CNS
  GI50: 16.9 µM
  TGI: 79.5 µM
ACHN renal
  GI50: 9.76 µM
  TGI: 32.2 µM
OVCAR-4 ovarian
  GI50: 4.24 µM
  TGI: 29.8 µM
MCF7 breast
  GI50: 23.8 µM
  TGI: > 100 µM
KM12 colon
  GI50: > 100 µM
